System: adipose cells of rats
Experiment: Evaluation of the sugar-transporting activity (2-[14C(U)]-deoxy-D-glucose incorporation)
Type: cell-based
Conditions: rat adipose cells; for A: sugar transporting activity (EC50): concentration having a reinforcing effect corresponding to 50% of the reinforcing effect of insulin (100%); for activation at 100 µg/mL: 100 μg/ml of each compound, evaluated on the basis of the reinforcing effect of insulin (100 nM)
Method: After the decapitation and venesection of 6 male Wistar rats (body weight: 150 to 200 g), an incision was made in the abdomen of each rat to extract 6 g in total of epididymal adipose tissues. The tissues were finely cut into 2 mm×2 mm pieces in 6 ml of KRH (Krebs-Ringer Hepes, composition: 130 mM of sodium chloride, 4.7 mM of potassium chloride, 1.2 mM of potassium dihydrogenphosphate, 1.2 mM of magnesium sulfate, 1 mM of calcium chloride and 25 mM of Hepes, pH=7.6) containing 5% of BSA (bovine serum albumin). 24 mg of collagenase (type I) was added thereto and the digestion treatment was conducted for about 40 minutes to obtain about 6 ml of isolated adipose cells. The collagenase was removed by the buffer exchange. 2% BSA/KRH solution was added to the residue for the re-suspension to obtain 45 ml of an adipose cell suspension.
The sugar-transporting activity of the compounds of the present invention was evaluated with reference to a method described in a literature [Annual Review of Biochemistry, Vol. 55, p. 1059 (1986)]. In the test, 200 μl of the adipose cell suspension was poured in each polystyrene test tube, 100 μl of the solution of the test substance (by dilution of 10 mg/ml substance dimethyl sulfoxide solution with KRH) was added thereto, and the obtained mixture was shaken and then cultured at 37° C. for 30 minutes.
The sugar-transporting activity was evaluated by measuring the quantity of 2-[^14C(U)]-deoxy-D-glucose incorporated per a unit time. Namely, 2-[^14C(U)]-deoxy-D-glucose was added to the adipose cell suspension after the pre-culture (the final concentration: 0.5 μCi/sample). 5 minutes after, cytochalasin B (final concentration: 10 μM) was added to the mixture to terminate the sugar transportation. After forming a dinonyl phthalate layer, the obtained mixture was centrifuged to separate the adipose cells from the buffer. The quantity of 2-[^14C(U)]-deoxy-D-glucose contained in the adipose cell layer was determined with a liquid scintillation counter to determine the quantity of the incorporated sugar. In this evaluation system, when insulin (100 nM) having the effect of increasing the sugar transportation was used, the effect was about 7 times as high as that obtained in the insulin-free control group.
The results of the evaluation of the sugar-transporting activity obtained by using 100 μg/ml of each compound of the present invention are shown in Table 6. The sugar transporting activity in Table 6 was evaluated on the basis of the reinforcing effect of insulin (100 nM). […] The symbols in Table 6 are as follows: • No: Example No., and • A: sugar transporting activity.
The results of the evaluation of the sugar-transporting activity obtained by using each compound of the present invention are shown in Table 7. The sugar transporting activity in Table 7 was determined in terms of the concentration (EC50: μg/ml) of a test compound, having a reinforcing effect corresponding to 50% on the basis of the reinforcing effect of insulin having a reinforcing effect of 100%.

Structure (SMILES)	A: sugar transporting activity (EC50)	activation at 100 µg/mL
CCOc1ccccc1[C@@H]1C2=C(CNC2=O)N[C@@H]2CCCC[C@H]2N1C(=O)C(F)(F)F [Example 90]	5 µg/mL	–
CCCCCCOc1ccc(C2Nc3ccccc3NC3=C2C(=O)NC3)c(O)c1 (centres unmarked) [Example 29]	–	20 to 40%
CCOc1ccccc1[C@@H]1C2=C(CNC2=O)N[C@@H]2CCCC[C@H]2N1C(=O)COC(C)=O [Example 91]	13 µg/mL	–
COC(=O)CC(=O)N1[C@@H]2CCCC[C@H]2NC2=C(C(=O)NC2)[C@H]1c1ccccc1Cl [Example 146]	2 µg/mL	–
COc1ccccc1[C@@H]1C2=C(CNC2=O)N[C@@H]2CCCC[C@H]2N1C(=O)CCc1ccccc1 [Example 68]	0.9 µg/mL	–
CCOCC(=O)N1[C@@H]2CCCC[C@H]2NC2=C(C(=O)NC2)[C@H]1c1ccccc1C [Example 119]	4 µg/mL	–
COCC(=O)N1[C@@H]2CCCC[C@H]2NC2=C(C(=O)NC2)[C@H]1c1ccccc1C [Example 122]	6 µg/mL	–
Cc1ccccc1[C@@H]1C2=C(CNC2=O)N[C@@H]2CCCC[C@H]2N1C(=O)C(F)(F)F [Example 117]	6 µg/mL	–
COc1ccccc1[C@@H]1C2=C(CNC2=O)N[C@@H]2CCCC[C@H]2N1C(=O)OCc1ccccc1 [Example 82]	6 µg/mL	–
CCC(=O)N1[C@@H]2CCCC[C@H]2NC2=C(C(=O)NC2)[C@H]1c1ccccc1OC(C)C [Example 99]	2 µg/mL	–
CCC(=O)N1[C@@H]2CCCC[C@H]2NC2=C(C(=O)NC2)[C@H]1c1ccccc1C [Example 118]	2 µg/mL	–
COC(=O)N1[C@@H]2CCCC[C@H]2NC2=C(C(=O)NC2)[C@H]1c1ccccc1 [Example 156]	2 µg/mL	–
COCC(=O)N1[C@@H]2CCCC[C@H]2NC2=C(C(=O)NC2)[C@H]1c1ccccc1Br [Example 138]	6 µg/mL	–
COc1ccccc1[C@@H]1C2=C(CNC2=O)N[C@@H]2CCCC[C@H]2N1C(=O)CCNC(=O)OCc1ccccc1 [Example 65]	8 µg/mL	–
COc1ccccc1[C@@H]1C2=C(CNC2=O)N[C@@H]2CCCC[C@H]2N1C(=O)COC(C)=O [Example 52]	5.9 µg/mL	–
CCC(=O)N1[C@@H]2CCCC[C@H]2NC2=C(C(=O)NC2)[C@H]1c1ccccc1F [Example 149]	2 µg/mL	–
CCCCOc1ccc(C2Nc3ccccc3NC3=C2C(=O)NC3)c(OCCC)c1 (centres unmarked) [Example 24]	–	≥ 70%
CCC(=O)N1[C@@H]2CCCC[C@H]2NC2=C(C(=O)NC2)[C@H]1c1ccccc1CC [Example 127]	2.2 µg/mL	–
O=C1NCC2=C1C(c1ccc(-n3cccn3)cc1)Nc1ccccc1N2 (centres unmarked) [Example 17]	–	20 to 40%
O=C1NCC2=C1C(c1ccc(Cl)cc1)Nc1ccccc1N2 (centres unmarked) [Example 2]	–	20 to 40%
COc1ccc(F)cc1[C@@H]1C2=C(CNC2=O)N[C@@H]2CCCC[C@H]2N1C(C)=O [Example 113]	10 µg/mL	–
COc1cc(OCc2ccccc2)ccc1C1Nc2ccccc2NC2=C1C(=O)NC2 (centres unmarked) [Example 28]	–	40 to 70%
CCc1ccccc1[C@@H]1C2=C(CNC2=O)N[C@@H]2CCCC[C@H]2N1C(C)=O [Example 131]	4 µg/mL	–
COc1ccccc1[C@@H]1C2=C(CNC2=O)N[C@@H]2CCCC[C@H]2N1C(=O)Cc1ccccc1 [Example 56]	5 µg/mL	–
CCOCC(=O)N1[C@@H]2CCCC[C@H]2NC2=C(C(=O)NC2)[C@H]1c1ccc(Cl)cc1 [Example 163]	6 µg/mL	–

Structure (SMILES)	A: sugar transporting activity (EC50)	activation at 100 µg/mL
O=C1NCC2=C1[C@@H](c1ccc(Cl)cc1)N[C@@H]1CCCC[C@H]1N2 [Example 41]	–	≥ 70%
CCOc1ccccc1[C@@H]1C2=C(CNC2=O)N[C@@H]2CCCC[C@H]2N1C(=O)COC [Example 93]	3.6 µg/mL	–
COc1ccccc1[C@@H]1C2=C(CNC2=O)N[C@@H]2CCCC[C@H]2N1C(=O)CCc1ncco1 [Example 166]	0.064 µg/mL	–
CCCCOc1ccc(C2Nc3ccccc3NC3=C2C(=O)NC3)c(OC)c1 (centres unmarked) [Example 21]	–	40 to 70%
CC(=O)N1[C@@H]2CCCC[C@H]2NC2=C(C(=O)NC2)[C@H]1c1ccccc1OCc1ccccc1 [Example 103]	3.6 µg/mL	–
COc1ccccc1[C@@H]1C2=C(CNC2=O)N[C@@H]2CCCC[C@H]2N1C(=O)CCc1ccccn1 [Example 176]	0.021 µg/mL	–
COCC(=O)N1[C@@H]2CCCC[C@H]2NC2=C(C(=O)NC2)[C@H]1c1ccccc1Cl [Example 144]	5 µg/mL	–
CCC(=O)N1[C@@H]2CCCC[C@H]2NC2=C(C(=O)NC2)[C@H]1c1ccccc1Br [Example 135]	1.5 µg/mL	–
COc1ccccc1[C@@H]1C2=C(CNC2=O)N[C@@H]2CCCC[C@H]2N1C(=O)CCCO [Example 62]	4.8 µg/mL	–
CCCC(=O)N1[C@@H]2CCCC[C@H]2NC2=C(C(=O)NC2)[C@H]1c1ccccc1OC [Example 47]	4.6 µg/mL	–
O=C1NCC2=C1C(c1ccc(I)cc1)Nc1ccccc1N2 (centres unmarked) [Example 3]	–	20 to 40%
COc1ccccc1CCC(=O)N1[C@@H]2CCCC[C@H]2NC2=C(C(=O)NC2)[C@H]1c1ccccc1OC [Example 69]	4 µg/mL	–
CCc1ccccc1[C@@H]1C2=C(CNC2=O)N[C@@H]2CCCC[C@H]2N1C(=O)COC [Example 130]	6 µg/mL	–
COc1ccccc1[C@@H]1C2=C(CNC2=O)N[C@@H]2CCCC[C@H]2N1C(=O)Oc1ccccc1 [Example 83]	11 µg/mL	–
CC(C)(C)c1ccc(C2Nc3ccccc3NC3=C2C(=O)NC3)c(Cl)c1 (centres unmarked) [Example 30]	–	20 to 40%
CCOCC(=O)N1[C@@H]2CCCC[C@H]2NC2=C(C(=O)NC2)[C@H]1c1ccccc1Cl [Example 145]	10.7 µg/mL	–
COc1ccccc1[C@@H]1C2=C(CNC2=O)N[C@@H]2CCCC[C@H]2N1C(=O)c1ccncc1 [Example 78]	18 µg/mL	–
CCC(=O)N1[C@@H]2CCCC[C@H]2NC2=C(C(=O)NC2)[C@H]1c1ccccc1Cl [Example 141]	3 µg/mL	–
CC(=O)N1[C@@H]2CCCC[C@H]2NC2=C(C(=O)NC2)[C@H]1c1ccccc1C [Example 123]	5 µg/mL	–
CCOCC(=O)N1[C@@H]2CCCC[C@H]2NC2=C(C(=O)NC2)[C@H]1c1ccccc1O [Example 104]	1 µg/mL	–
CSc1ccccc1[C@@H]1C2=C(CNC2=O)N[C@@H]2CCCC[C@H]2N1C(=O)CCc1ncco1 [Example 168]	0.070 µg/mL	–
COCC(=O)N1[C@@H]2CCCC[C@H]2NC2=C(C(=O)NC2)[C@H]1c1ccccc1OC [Example 53]	2 µg/mL	–
COC(=O)N1[C@@H]2CCCC[C@H]2NC2=C(C(=O)NC2)[C@H]1c1ccccc1OC(C)C [Example 101]	4.8 µg/mL	–
CCCC(=O)N1[C@@H]2CCCC[C@H]2NC2=C(C(=O)NC2)[C@H]1c1ccccc1CC [Example 126]	5 µg/mL	–
CC(=O)N1[C@@H]2CCCC[C@H]2NC2=C(C(=O)NC2)[C@H]1c1ccccc1Br [Example 139]	6 µg/mL	–

Reference: patent US7632830B2, “Lactam compounds and pharmaceutical use thereof” (Ajinomoto Co., Inc., priority 2000, dated 2009)
